From ChEMBL document CHEMBL1158821, “Anti-inflammatory sesquiterpene-quinones from the New Zealand sponge Dysidea cf. cristagalli” (J Nat Prod, 2005) come the findings set out here.

A short description of data set [1]: Antiinflammatory activity in PMA-induced human neutrophils assessed as inhibition of superoxide production. The format is functional, cell-based. To be noted: Neutrophil.
Data set [2] can be described thus: Toxicity against human HL60 cells assessed as inhibition of cell proliferation. The format is cell-based. The conditions noted are these: HL-60 cells.

On to `CC1=CC[C@H]2C(C)(C)CCC[C@]2(C)[C@H]1CC1=C(O)C(=O)C=CC1=O`, for which the IC50 in data set [1] came to 11000 nM; in data set [2], 340 nM.
For `CC(=O)Oc1ccc(O)c(C[C@H]2C(C)=CC[C@H]3C(C)(C)CCC[C@]23C)c1O` the same measures were 3000 nM and 370 nM.

One may read the IC50 as the concentration that gives 50% inhibition.
